Values quoted from earlier work as cited in patent US8771972B2 (Saladax Biomedical Inc., priority 2011, dated 2014).

Details: background statement

For `C[N+]1([O-])CCN(C2=Nc3cc(Cl)ccc3Nc3ccccc32)CC1` [N-Oxide derivative, Clozapine-N-oxide], the activity of metabolite is listed as “inactive”.
For `Clc1ccc2c(c1)N=C(N1CCNCC1)c1ccccc1N2` [N-desmethyl metabolite, N-desmethylclozapine], the activity of metabolite is given as “limited activity”.
